Experimental data reported in patent EP2613758B1, “MACROEMULSIONS WITH IMPROVED DEODORANT EFFICACY” (Beiersdorf AG, priority 2010, dated 2012).

Legend:
S. epidermidis = assay: Suspension test (germ count reduction by the formulation); assay type: cell-based; settings: active alone; Ethylhexylglycerin 0,5% in Makroemulsion ohne Octenidine (Abbildung 4)
Protocol: Die Wirksamkeit wurde mittels der Freisetzung von Octenidine aus Makro- bzw. Mikroemulsionen untersucht, wie es beispielhaft in Abbildung 3 und 4 dargestellt ist. Ebenso sind Untersuchungen durchgeführt worden für W/O- Aerosol-Zubereitungen einmal mit und einmal ohne Octenidine, die zu gleichen Ergebnissen geführt haben. In den dargestellten Suspensionstests wurden zu 500µL einer Bakteriensuspension (S. epidermidis) 250 mg der zu testenden Formulierung gegeben (bei der Positivkontrolle nur 250 mg des Bakterienmediums). Diese Mischungen werden mit Medium auf 1000µL aufgefüllt. Die Suspension enthält dann ca. 1*10^6 KBE/mL (KBE: koloniebildende Einheiten). Die Ansätze werden bei 37°C unter Rotation für drei Stunden inkubiert. Nach 0, 20, 60 und 180 min werden Proben genommen, verdünnt und auf Agarplatten ausplattiert. Diese werden 24h bei 37°C zur Anzucht der verbleibenden Keime inkubiert. Gute und in vivo wirksame Deodorant-Formulierungen reduzieren die Keimzahl bereits nach 20 Minuten auf Nachweisgrenze von 100 KBE/mL. Formulierungen mit schlechterer Keimzahl-Reduktion zeigen in vivo keine ausreichende Deoleistung.

Bakterien = assay: Investigations of efficacy of amphiphilic actives from micro- and macroemulsions (method not specified)

SMILES | Wirksamkeit im Suspensionstest (Keimzahl-Reduktion) (S. epidermidis) | Wirksamkeit (Bakterien; aus Makroemulsionen) | Wirksamkeit (Bakterien; in einer Mikroemulsion)
CCCCCCCCN=c1ccn(CCCCCCCCCCn2ccc(=NCCCCCCCC)cc2)cc1.Cl.Cl [Octenidine HCl, N, N'-(1,10-decanediyldi-1[4H]-pyridinyl-4-ylidene)-bis-(octanamine) dihydrochloride] | gewünschte Wirksamkeit | zeigen eine Wirksamkeit | –
CCCCC(CC)COCC(O)CO (centres unmarked) [Ethylhexylglycerin, 1-(2-Ethylhexyl)glycerinether] | nicht wirksam | – | –
CC(C)(C)CC(C)(C)c1ccc(OCCOCC[N+](C)(C)Cc2ccccc2)cc1 [Benzethonium chloride] | – | zeigen eine Wirksamkeit | unwirksam
